# Test system: C. reinhardtii
# Test: Growth in medium with 1 μM Rapamycin (time needed for division)
# Type: cell-based, Chlamydomonas reinhardtii
# Conditions: saturating concentration of Rapamycin (1 μM)
# Description: FIGS. 3A-3D illustrates the growth of cht7—expressing cells affected by different treatments. FIG. 3A graphically illustrates growth of cht7 and parental (dw15) lines on nitrogen-replete medium (optical density (OD) at 550 nm). Doubling times are given in parentheses. The grey bar indicates the OD at which nitrogen-replete samples were taken for all experiments in this study. Averages of three biological replicates are given with standard deviations for all points being smaller than 3%. FIG. 3B graphically illustrates growth of dw15, cht7, and four independent complementation lines (C1-4) during nitrogen deprivation (−N) followed by nitrogen resupply (+N) measured at the times indicted. Insert, cultures at 24 h following nitrogen resupply. FIG. 3C graphically illustrates growth during phosphate deprivation (−P) followed by phosphate resupply (+P). FIG. 3D graphically illustrates growth in the medium with 1 μM Rapamycin (+R) followed by the removal of Rapamycin (−R). Cultures were diluted twice (a) with medium containing 1 μM Rapamycin to avoid reaching stationary phase.
# Growth under different nitrogen and phosphate regimes and following Rapamycin treatment, plating and viability assays, as well as lipid assays were performed using established methods.
# Growth of the cht7 mutant was normal in nitrogen-replete medium under standard conditions (FIG. 3A). […]
smiles,measurement,setting,value
CO[C@H]1C[C@@H]2CC[C@@H](C)[C@@](O)(O2)C(=O)C(=O)N2CCCC[C@H]2C(=O)O[C@H]([C@H](C)C[C@@H]2CC[C@@H](O)[C@H](OC)C2)CC(=O)[C@H](C)/C=C(\C)[C@@H](O)[C@@H](OC)C(=O)[C@H](C)C[C@H](C)/C=C/C=C/C=C/1C [Rapamycin],time needed for division,cht7 mutant,30.1 h
same,time needed for division,parental line (dw15),23.9 h

# Reference: patent US20160201075A1, “REGULATOR OF ALGAL LIPID METABOLISM AND CELLULAR […] ITS APPLICATIONS” (Board of Trustees of Michigan State University, priority 2014, published 2016)
